Data set [1] concerns pancreatin (from the porcine pancreas), chymotrypsin (from bovine pancreas). In words: Enzymatic stability with digestive enzymes. Type of data set: in vitro ADME. Particulars: chymotrypsin and bile salts, peptide/enzyme 1:10 or 1:100 w/w, 37 °C, 180 min, LC-MS/MS. As to the method: (§1) The peptide (5 µM) was incubated for 3 h and monitored by mass spectrometry experiments. On the other hand, the assessment of PG1 enzymatic stability was performed by treating the peptide with digestive enzymes. In detail, pentapeptide was incubated with pancreatin (from the porcine pancreas), chymotrypsin (from bovine pancreas) and bile salts. Digestive reactions were carried out at 37 °C for 180 min with 1:10 or 1:100 peptide/enzyme ratio, w/w. Finally, the mixture was centrifuged at 4000× g at 4 °C for 10 min, and PG1 peptide was collected at time 0 and at the end of the experiment and then analyzed by LC-MS/MS for the mass balance calculation.

The test system of data set [2] is Caco-2 cell monolayers. Put plainly: Caco-2 cell monolayers permeation experiments. Type of data set: in vitro ADME, human. On the technique in general: Passage across Caco-2 layers is used to estimate intestinal permeability.
Protocol: (§2) The colorectal adenocarcinoma (Caco-2) cell line was purchased from ATCC (Rockville, MD, USA). Cells were cultured in DMEM high glucose (4.5 g/L) with 2 mM L-glutamine and 10% (v/v) heat-inactivated fetal bovine serum. Cells were maintained at 37 °C in a humidified 5% CO2 atmosphere. Differentiation experiments were performed in a 12-well multiwell in transwell inserts (PET membrane, 0.4 µm pore size, 0.30 cm^2 surface area), plating Caco-2 at 2.6 × 10^5 cells/cm^2 for 21 days in complete medium, changed every other day.
(§3) The integrity of the monolayers was evaluated by means of the transepithelial electrical resistance (TEER) measurement using an EVOM2 epithelial voltohmmeter (World Precision Instruments, Sarasota, FL, USA). […] For the permeation assays, only intact monolayers with TEER higher than 300 Ω × cm^2 were used. In brief, PET membranes were washed for 15–20 min at 37 °C with pre-warmed Hank’s balanced salt solution (HBSS) buffered with 25 mM HEPES and NaHCO3 (0.35 g/L) to adjust pH at 7.4, or with 10 mM methanesulfonic acid to adjust pH at 6.5. HBSS was added both to the apical (0.3 mL) and to the basolateral (0.9 mL) transwell compartments, as previously described [22].
(§4) For transport experiments, donor solution containing PG1 peptide was added to the apical compartment. […]
(§5) The apparent permeability coefficient (Papp) was calculated according to the Equation (1). The donor concentration was recalculated by subtracting the cumulative amount transported to the receiver chamber for each time interval:(1) CD(ti)=CD(ti−1)−CRti−f×CRti−1×VR/VD CD (ti) and CR (ti) (μM): donor and receiver chamber concentrations calculated at each sample occasion (i) from the donor and receiver concentrations at the previous occasion CD (ti−1) and CR (ti−1), respectively; f = 1 − VS/VR: sample replacement dilution factor; VS (cm^3): sample volume; VR (cm^3): receiver chamber volume; VD (cm^3): donor chamber volume.
Data set [3] is described as follows: Caco-2 cell monolayers permeation experiments. Type of data set: in vitro ADME, human. Particulars: human; Caco-2 monolayers, HBSS, 180 min, UHPLC-MS/MS; read-out: efflux ratio (Papp,b/a/Papp,a/b).
Protocol: as §2, §3, §4, §5
A short description of data set [4]: Microsomal stability assay. The data set is classed as in vitro ADME. Particulars: human microsomes 20 mg/mL stock (5 μL in 200 µL), PG1 1 mM stock (2 μL), 100 mM phosphate buffer pH 7.4, 5 min pre-incubation, NADPH, 37 °C, 60 min, LC-MS/MS; mean ± SEM; read-out: parent compound turnover percentage. As to the method: 2 μL of PG1 peptide (1 mM) were incubated with 183 µL of 100 mM phosphate buffer (pH 7.4), and 5 μL of 20 mg/mL human microsomes (Thermo Fisher Scientific, Bremen, Germany). After pre-incubation in a water bath for 5 min, the mixture was added with 10 μL of the 20 mM NADPH at further incubated at 37 °C for 60 min. The reaction was stopped with ice-cold methanol, centrifuged at 10,000 rpm at room temperature for 5 min and analyzed by LC-MS/MS. Three controls were used: T0 reference was obtained stopping the microsomal reaction by addition of the organic solvent immediately after incubation with microsomes. As positive and negative controls were used testosterone and PG1 solution incubated without NADPH. The extent of metabolism is expressed as a percentage of the parent compound turnover using the following equation:(2) % Parent compound turnover = 100 − [concentration at 60 min/concentration at 0 min × 100]

Data set [5] has as its system Caco-2 cell monolayers. In words: Caco-2 monolayer integrity (zonulin-1 immunofluorescence) and cell vitality. Type of data set: cell-based, human. Particulars: PG1 25 μM, 3 h; zonulin-1 expression and cell vitality (crystal violet); Figure S2. As to the method:
To evaluate the effect of PG1 peptide on colorectal adenocarcinoma (Caco-2) cells, the cells were plated in 48-well plates at a density of 36 × 10^3 cells/well. After 24 h, the Hanks’ Balanced Salt solution containing PG1 peptide at the indicated concentrations was added to the wells. The cells were examined after 3 h through microscope analysis. Finally, cells’ viability was assessed by the use of Crystal Violet Staining Solution.
All experiments were performed in triplicate, and the relative cell viability was expressed as a percentage in comparison with the untreated control cells.
Integrity of monolayers was evaluated at the end of transport experiments fixing the PET membranes with 4% paraformaldehyde (PFA) for 15 min after a wash with PBS. Membranes were then incubated with blocking solution (0.1% Triton, 1% BSA, 0.02% sodium azide, 50 mM ammonium chloride) for 20 min at room temperature in the dark, followed by incubation with anti-zonulin 1 antibody (#402200, Invitrogen, Thermo Fisher Scientific, Waltham, MA, USA) at 2 μg mL^−1 (RT, 2 h). […] Slides were examined under a Nikon fluorescence inverted microscope (Nikon Instruments Europe, Firenze, Italy) and analyzed as described.
Figure S2. (A) Fluorescence micrograph of the Caco-2 cell monolayers. […]
Original magnification 200X. […] Results are expressed as mean (± SD), and are representative of three independent experiments. […]

A short description of data set [6]: Chemical stability in simulated enteric lumen. The data set is classed as physicochemical. Particulars: 5 µM peptide, 10 mM HCOONH4 pH 7.5, 37 °C, 3 h, mass spectrometry. Here is the method: In order to determine pharmacokinetic properties of a synthetic peptide, we have evaluated its chemical stability during in vitro simulated GI digestion. In detail, we have recreated the enteric lumen by alkalinization at pH = 7.5 with 10 mM HCOONH4 buffer.
as §1

A short description of data set [7]: Serum concentration of PG1 in treated mice. Type of data set: in vivo. Particulars: mouse, mice treated with PG1 (10 mg/Kg daily), ACN/0.1% TFA extraction, LC-MS/MS, LOQ 8.6 pM, mean ± SEM, read-out: serum concentration of pentapeptide. Here is the method: For the determination of serum concentration of pentapeptide in mice treated with PG1, blood samples were taken from the ventricle, performing a slow withdrawal to prevent the heart collapsing, to obtain a large quantity of high-quality blood. After collection, samples were rapidly centrifuged at 800 g to separate and collect serum. Extraction was conducted with ice-cold ACN plus 0.1% TFA (100 µL serum + 200 µL ACN). Samples were vortexed for 30 s and then centrifuged for 5 min at 10,000 rpm (Eppendorf Centrifuge model 5425). The supernatant was dried under nitrogen steam and reconstituted in 50:50 H2O/ACN. Calibration curve prepared by serial dilution of synthetic peptide solubilized in water in over the range 200–10 pM (y = 0.0167x + 0.7127, R^2 = 0.9998, LOD = 2.8 pM, LOQ = 8.6 pM).

This is an account of results in PMC8002072, “A Novel Vasoactive Peptide “PG1” from Buffalo Ice-Cream Protects from Angiotensin-Evoked High Blood Pressure” (Antioxidants, 2021).

Where a SMILES comes first, the peptide text is derived from it. Some results are limits rather than exact numbers.

As for `CSCC[C@H](NC(=O)[C@@H]1CCCN1C(=O)[C@H](CCC(=O)O)NC(=O)[C@H](CCCCN)NC(=O)[C@@H](N)CCC(N)=O)C(=O)O` [PG1, Gln-Lys-Glu-Pro-Met] (H-QKEPM-OH), the “enzymatic stability (hydrolysis)” value in data set [1] is given as “not hydrolysed”. In addition, the “dependence of transmembrane uptake on proton gradient” value in the data set on Caco-2 cell monolayers [2] (Caco-2 monolayers, HBSS pH 7.4 or pH 6.5) is recorded as “independent of the proton gradient”. In data set [3], the efflux ratio at 180 min was less than 1. Further, in data set [4], the metabolised at 1 h, 10 µM was approximately 13.2%. Further, the “Caco-2 cell monolayers integrity” value in the data set on Caco-2 cell monolayers [5] was “preserved”. Further, in data set [6], the chemical stability entry is “high peptide stability for up to 3 h”. In addition, in data set [7], the level at time molar was approximately 0.017 nM.

Take `CC(C)NCC(O)COc1cccc2ccccc12` (centres unmarked) [propranolol, reference compound]: in the data set with Caco-2 cell monolayers [2] (Caco-2 monolayers 21 days, transwell, HBSS, LC-MS/MS (SRM), integrity/reference marker), the “apparent permeability coefficient (Papp) of monolayer control” value is recorded as 8.05 ± 0.16 × 10^−5 cm/s.
